Test results reported in PubChem BioAssay (NCI).
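Grown in 96-well plates, cells were treated for 48 hours with each compound at five concentrations. Insufficient inhibition: endpoint recorded as highest concentration tested. At the GI50, growth is halved. TGI: total growth inhibition.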

Assays:
Experiment in all cases: NCI tumour cell line growth inhibition, 48 h
786-0 renal = test system: 786-0 renal
A498 renal = test system: A498 renal
A549 NSCLC = test system: A549 NSCLC
ACHN renal = test system: ACHN renal
BT-549 breast = test system: BT-549 breast
CCRF-CEM leukemia = test system: CCRF-CEM leukemia
COLO 205 colon = test system: COLO 205 colon
DU-145 prostate = test system: DU-145 prostate
EKVX NSCLC = test system: EKVX NSCLC
HCC-2998 colon = test system: HCC-2998 colon
HCT-116 colon = test system: HCT-116 colon
HCT-15 colon = test system: HCT-15 colon
HL-60(TB) leukemia = test system: HL-60(TB) leukemia
HOP-92 NSCLC = test system: HOP-92 NSCLC
HS 578T breast = test system: HS 578T breast
HT29 colon = test system: HT29 colon
IGROV1 ovarian = test system: IGROV1 ovarian
K-562 leukemia = test system: K-562 leukemia
KM12 colon = test system: KM12 colon
LOX IMVI melanoma = test system: LOX IMVI melanoma
M14 melanoma = test system: M14 melanoma
MALME-3M melanoma = test system: MALME-3M melanoma
MCF7 breast = test system: MCF7 breast
MDA-MB-231 breast = test system: MDA-MB-231 breast
MDA-MB-435 = test system: MDA-MB-435
MOLT-4 leukemia = test system: MOLT-4 leukemia
NCI-H226 lung = test system: NCI-H226 lung
NCI-H23 lung = test system: NCI-H23 lung
NCI-H460 lung = test system: NCI-H460 lung
NCI-H522 lung = test system: NCI-H522 lung
NCI/ADR-RES ovarian = test system: NCI/ADR-RES ovarian
OVCAR-3 ovarian = test system: OVCAR-3 ovarian
OVCAR-4 ovarian = test system: OVCAR-4 ovarian
OVCAR-5 ovarian = test system: OVCAR-5 ovarian
OVCAR-8 ovarian = test system: OVCAR-8 ovarian
PC-3 prostate = test system: PC-3 prostate
RPMI-8226 leukemia = test system: RPMI-8226 leukemia
RXF 393 renal = test system: RXF 393 renal
SF-268 CNS = test system: SF-268 CNS
SF-295 CNS = test system: SF-295 CNS
SF-539 CNS = test system: SF-539 CNS
SK-MEL-2 melanoma = test system: SK-MEL-2 melanoma
SK-MEL-28 melanoma = test system: SK-MEL-28 melanoma
SK-MEL-5 melanoma = test system: SK-MEL-5 melanoma
SK-OV-3 ovarian = test system: SK-OV-3 ovarian
SN12C renal = test system: SN12C renal
SNB-19 CNS = test system: SNB-19 CNS
SNB-75 CNS = test system: SNB-75 CNS
SR leukemia = test system: SR leukemia
SW-620 colon = test system: SW-620 colon
T-47D breast = test system: T-47D breast
TK-10 renal = test system: TK-10 renal
U251 CNS = test system: U251 CNS
UACC-257 melanoma = test system: UACC-257 melanoma
UACC-62 melanoma = test system: UACC-62 melanoma
UO-31 renal = test system: UO-31 renal

O=c1c2ccccc2oc2ccc(OCCCCCCN3CCCCCC3)cc12 gave a GI50 (786-0 renal) of 1.9 µM, a TGI (786-0 renal) of 4.35 µM and a GI50 (A498 renal) of 2.49 µM. For the same molecule, the TGI (A498 renal) was 6.49 µM, the GI50 (A549 NSCLC) was 3.51 µM and the TGI (A549 NSCLC) was 11.5 µM. It also gave a GI50 (ACHN renal) of 3.68 µM, a TGI (ACHN renal) of 13.2 µM and a GI50 (BT-549 breast) of 1.7 µM. It also gave a TGI (BT-549 breast) of 5.3 µM, a GI50 (CCRF-CEM leukemia) of 3.17 µM and a TGI (CCRF-CEM leukemia) of 12 µM. For the same molecule, the GI50 (COLO 205 colon) was 1.93 µM, the TGI (COLO 205 colon) was 4.05 µM and the GI50 (DU-145 prostate) was 5.89 µM. For the same molecule, the TGI (DU-145 prostate) was 19 µM, the GI50 (EKVX NSCLC) was 2.88 µM and the TGI (EKVX NSCLC) was 13.9 µM. For the same molecule, the GI50 (HCC-2998 colon) was 2.97 µM, the TGI (HCC-2998 colon) was 11.6 µM and the GI50 (HCT-116 colon) was 2.13 µM. It also gave a TGI (HCT-116 colon) of 5.16 µM, a GI50 (HCT-15 colon) of 2.09 µM and a TGI (HCT-15 colon) of 11.1 µM. For the same molecule, the GI50 (HL-60(TB) leukemia) was 1.84 µM, the TGI (HL-60(TB) leukemia) was 3.97 µM and the GI50 (HOP-92 NSCLC) was 4.29 µM. The TGI (HOP-92 NSCLC) was 20.7 µM, the GI50 (HS 578T breast) was 7.5 µM and the TGI (HS 578T breast) was 36.7 µM. It also gave a GI50 (HT29 colon) of 1.91 µM, a TGI (HT29 colon) of 6.57 µM and a GI50 (IGROV1 ovarian) of 4.29 µM. For the same molecule, the TGI (IGROV1 ovarian) was 17.5 µM, the GI50 (K-562 leukemia) was 1.96 µM and the TGI (K-562 leukemia) was 4.6 µM. For the same molecule, the GI50 (KM12 colon) was 3.2 µM, the TGI (KM12 colon) was 11.5 µM and the GI50 (LOX IMVI melanoma) was 1.85 µM. It also gave a TGI (LOX IMVI melanoma) of 3.54 µM, a GI50 (M14 melanoma) of 1.88 µM and a TGI (M14 melanoma) of 3.69 µM. The GI50 (MALME-3M melanoma) was 1.93 µM, the TGI (MALME-3M melanoma) was 3.68 µM and the GI50 (MCF7 breast) was 1.91 µM. The TGI (MCF7 breast) was 5.53 µM, the GI50 (MDA-MB-231 breast) was 4.19 µM and the TGI (MDA-MB-231 breast) was 13 µM. The GI50 (MDA-MB-435) was 2.53 µM, the TGI (MDA-MB-435) was 8.75 µM and the GI50 (MOLT-4 leukemia) was 2.38 µM. It also gave a TGI (MOLT-4 leukemia) of 6.29 µM, a GI50 (NCI-H226 lung) of 4.29 µM and a TGI (NCI-H226 lung) of 20.2 µM. The GI50 (NCI-H23 lung) was 3.1 µM, the TGI (NCI-H23 lung) was 11.7 µM and the GI50 (NCI-H460 lung) was 3.46 µM. It also gave a TGI (NCI-H460 lung) of 11.3 µM, a GI50 (NCI-H522 lung) of 2.82 µM and a TGI (NCI-H522 lung) of 11.5 µM. It also gave a GI50 (NCI/ADR-RES ovarian) of 3.73 µM, a TGI (NCI/ADR-RES ovarian) of 24.6 µM and a GI50 (OVCAR-3 ovarian) of 4.09 µM. For the same molecule, the TGI (OVCAR-3 ovarian) was 16.1 µM, the GI50 (OVCAR-4 ovarian) was 3.03 µM and the TGI (OVCAR-4 ovarian) was 16.7 µM. The GI50 (OVCAR-5 ovarian) was 3.24 µM, the TGI (OVCAR-5 ovarian) was 13.5 µM and the GI50 (OVCAR-8 ovarian) was 4.66 µM. The TGI (OVCAR-8 ovarian) was 17.9 µM, the GI50 (PC-3 prostate) was 3.17 µM and the TGI (PC-3 prostate) was 13.2 µM. The GI50 (RPMI-8226 leukemia) was 2.24 µM, the TGI (RPMI-8226 leukemia) was 5.78 µM and the GI50 (RXF 393 renal) was 2.17 µM. The TGI (RXF 393 renal) was 5.6 µM, the GI50 (SF-268 CNS) was 4.35 µM and the TGI (SF-268 CNS) was 20 µM. It also gave a GI50 (SF-295 CNS) of 2.16 µM, a TGI (SF-295 CNS) of 5.87 µM and a GI50 (SF-539 CNS) of 1.76 µM. The TGI (SF-539 CNS) was 3.4 µM, the GI50 (SK-MEL-2 melanoma) was 3.05 µM and the TGI (SK-MEL-2 melanoma) was 9.75 µM. The GI50 (SK-MEL-28 melanoma) was 2.01 µM, the TGI (SK-MEL-28 melanoma) was 4.58 µM and the GI50 (SK-MEL-5 melanoma) was 1.68 µM. It also gave a TGI (SK-MEL-5 melanoma) of 3.04 µM, a GI50 (SK-OV-3 ovarian) of 2.77 µM and a TGI (SK-OV-3 ovarian) of 8.29 µM. For the same molecule, the GI50 (SN12C renal) was 4.07 µM, the TGI (SN12C renal) was 16.2 µM and the GI50 (SNB-19 CNS) was 4.12 µM. For the same molecule, the TGI (SNB-19 CNS) was 14.4 µM, the GI50 (SNB-75 CNS) was 3.11 µM and the TGI (SNB-75 CNS) was 14.1 µM. For the same molecule, the GI50 (SR leukemia) was 1.95 µM, the TGI (SR leukemia) was 4.93 µM and the GI50 (SW-620 colon) was 3.11 µM. For the same molecule, the TGI (SW-620 colon) was 11 µM, the GI50 (T-47D breast) was 2.26 µM and the TGI (T-47D breast) was 8.52 µM. It also gave a GI50 (TK-10 renal) of 3.94 µM, a TGI (TK-10 renal) of 17.3 µM and a GI50 (U251 CNS) of 3.28 µM. For the same molecule, the TGI (U251 CNS) was 11.5 µM, the GI50 (UACC-257 melanoma) was 2.52 µM and the TGI (UACC-257 melanoma) was 5.28 µM. The GI50 (UACC-62 melanoma) was 2.29 µM, the TGI (UACC-62 melanoma) was 4.78 µM and the GI50 (UO-31 renal) was 2.05 µM. For the same molecule, the TGI (UO-31 renal) was 6.32 µM.
